One may read the pIC50 as the IC50 on a negative log10 scale, so that one unit is a factor of ten.

This is an account of results in patent publication US20100016307A1, “NOVEL COMPOUNDS” (priority 2006, published 2010).

pIC50: −log10 of the molar value. Bounds are passed on as bounds.

Test [1] addresses T1, c-Met/cFms chimeric receptor in c-Met/cFms/NIH3T3 cells (Homo sapiens, UniProt P08581).
T1 construct: The transmembrane/cytoplasmic domain fragment of c-Met (nucleotides 933 to 1390); expressed in transfected cells; the other entry of the earlier key: CSF1R (P07333, Macrophage colony-stimulating factor 1 receptor)
The experiment in a line: Cell-based assay for c-Met autophosphorylation (ELISA). Particulars: compounds 1 h at 37° C., M-CSF (600 ng/ml) stimulation 10 min. An excerpt: To generate a chimeric cDNA clone of c-Met with cFms, the extracellular domain of colony stimulating factor 1 receptor (CSF1R encoded by cFms gene) was fused with the transmembrane and cytoplasmic domain of c-Met. Reverse-transcribed RNA from human placenta was used as template to clone c-Met. The transmembrane/cytoplasmic domain fragment of c-Met (nucleotides 933 to 1390) containing a NotI site at both 5′- and 3′-end was generated by polymerase chain reaction (PCR) using following two oligonucleotides;
The resulting c-Met cDNA was cloned into pCR2.1-TOPO vector (c-Met/pCR2.1-TOPO). The extracellular domain fragment of cFms (nucleotides 1 to 512) containing BamHI site at 5′-end and NotI site at 3′-end was generated from human placenta cDNA by PCR using two oligonucleotides;
The resulting cFms cDNA was cloned into pcDNA3.1 vector (Invitrogen) using the BamHI and NotI sites (cFms/pcDNA3.1). To generate complete chimeric construct, the c-Met fragment (transmembrane and cytoplasmic domain) was digested with NotI sites (in c-Met/pCR2.1-TOPO vector) and then subcloned into cFms/pcDNA3.1 vector by NotI site (c-Met/cFms/pcDNA3.1).
NIH3T3 cells were grown in DMEM supplemented with 10% fetal bovine serum. NIH3T3 cells were transfected with c-Met/cFms/pcDNA3.1 vector alone using the calcium phosphate method according to the manufacturer's instructions. Three days after transfection, cells were selected with G418 (0.4 mgml^−1) for 14 days and the expression of c-Met chimeric receptor in the G418-resistant colonies of NIH3T3 (c-Met/cFms/NIH3T3) cells was analyzed by immunoblot. Autophosphorylation of c-Met induced by the stimulation with M-SCF, the ligand for CSF1R, was analyzed by immunoprecipitation and immunoblot, and prominent stable transfectant was selected for c-Met autophosphorylation assay. […]
c-Met/cFms/NIH3T3 cells were plated at 1×10^5 cells/well in collagen-coated 96-well microtitre plates and grown 24 h under standard culture conditions, followed by serum starvation for 1 h. The cells were incubated with compounds for 1 h at 37° C. and followed by M-CSF (600 ngml^−1) stimulation for 10 min at 37° C. The media was removed and the cells were lysed with 120 ul/well of lysis buffer (20 mM Tris-HCl pH8.0, 137 mM NaCl, 2 mM EDTA, 10% glycerol, 1% Triton X-100, 1 mM Na3VO4 and Protease Inhibitor Cocktail (Complete mini EDTA-free, Roche)). Then 100 ul/well of lysate was transferred to the antibody-coated (50 ng/well goat anti-cFms antibody in PBS) ELISA plate and incubated overnight at 4° C. Plates were washed five times with PBST (PBS containing 0.05% Tween-20). Primary antibody (biotin-conjugated anti-phosphotyrosine monoclonal antibody, PIERCE) was diluted 1:10,000 in PBST containing 1% BSA, added (100 ul/well) and incubated for 2 h at room temperature. After washing the plates five times with washing buffer, 100 ul/well of HRP-conjugated streptavidin (PIERCE) in PBST containing 1% BSA was added and incubated for 30 min at room temperature. After washing five times with PBST, 100 ul/well of SuperSignal ELISA Femto Substrate (PIERCE) was added and incubated for almost 1 min at room temperature. Chemiluminescence was measured using Wallac 1420 multilabel counter.
The IC50 was determined by using XLfit software (IDBS) with four-parameters, sigmoidal dose-response equation.
On the technique in general: ELISA stands for enzyme-linked immunosorbent assay.

The target of test [2] is T2, human Met Kinase (His6-GST fusion, aa 956-1390) (Homo sapiens, UniProt P08581).
T2 construct: His6 (N); GST (Glutathione-S-Transferase) (N); made in house; host or cells: baculovirus expression system in Sf9 cells
The experiment in a line: In vitro screen: kinase assay of purified Met kinase. Particulars: purified Met 1 nM, 10 μM ATP, 1 μM peptide substrate, 1 hour at room temperature; read-out: pIC50 values at the c-Met receptor (in vitro screen results) (converted). It is filed as biochemical. On the procedure: The peptide substrate, Biotin-aminohexyl-EEEEYFELVAKKKK-amide was purchased from SynPep Solid sample is dissolved at approximately 2.5 mM in water (concentration determined by amino acid analysis) and aliquots stored at −20° C.
Met Kinase: A fusion protein consisting of His6-tagged Glutathione-S-Transferase (GST) and amino acid residues 956-1390 of human Met Kinase (aa 956-1390 of Entrez Protein Accession # EAL24359.1 (met proto-oncogene (hepatocyte growth factor receptor) [Homo sapiens])) from “www.ncbi.nlm.nih.gov/entrez/”) is purified from baculovirus expression system in Sf9 cells using Ni chelate column, GSH column, followed by size exclusion chromatography. Purity greater than 90%, estimated by SDS-PAGE, is achieved. Samples in 25 mM HEPES pH 7.5, 100 mM NaCl, 0.1 mM EDTA are stored at −80° C. until use.
Assays are performed in 96 well (Costar, Catalog No. 3789) or 384 well plates (Costar, Catalog No. 3705). Assay conditions for the peptide phosphorylation reaction (in 10, 20, 25, or 40 μl volume) mix are 100 mM Hepes buffer, pH 7.4; 0.1 mgml^−1 BSA; 5 mM MgCl2; 1 mM DTT; 10 μM ATP; purified Met (1 nM final); and 1 μM peptide substrate. Compounds, titrated in DMSO, are evaluated at concentrations ranging from 50 μM to 0.2 nM. […] Reactions are incubated for 1 hour at room temperature and are stopped by addition of detection reagents containing, at final detection volume, 12.5 mM EDTA; 100 mM Hepes; 0.1 mg/ml BSA; 8 nM Streptavidin APC (Perkin Elmer catalog #CR130-150); 1 nM Europium-labelled anti-phosphotyrosine antibody (Perkin Elmer catalog #AD0067). Under the assay conditions defined above, the Km (apparent) for ATP is determined to be 40 μM.
The data for compound dose responses were plotted as % Inhibition, calculated with the data reduction formula 100*(1−[(U1−C2)/(C1−C2)]), versus concentration of compound, where U is the unknown value, C1 is the average control value obtained for DMSO, and C2 is the average control value obtained for 0.05M EDTA. Data were fitted to the curve described by: y=((Vmax*x)/(K+x)) where Vmax is the upper asymptote and K is the IC50. The results for each compound were recorded as pIC50 calculated as follows: pIC50=−Log 10(K).

T2 sequence (P08581 956-1390): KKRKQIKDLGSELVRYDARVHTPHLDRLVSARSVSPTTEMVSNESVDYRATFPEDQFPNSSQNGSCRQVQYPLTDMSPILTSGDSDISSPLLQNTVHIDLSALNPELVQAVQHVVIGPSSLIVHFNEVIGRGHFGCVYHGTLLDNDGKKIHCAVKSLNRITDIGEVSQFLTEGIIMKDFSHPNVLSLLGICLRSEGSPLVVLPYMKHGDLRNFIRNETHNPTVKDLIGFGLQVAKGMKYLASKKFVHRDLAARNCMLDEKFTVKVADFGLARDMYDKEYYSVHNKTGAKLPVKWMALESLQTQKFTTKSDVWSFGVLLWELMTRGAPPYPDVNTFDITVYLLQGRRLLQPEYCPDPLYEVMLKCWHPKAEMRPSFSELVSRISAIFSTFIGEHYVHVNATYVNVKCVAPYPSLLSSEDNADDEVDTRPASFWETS
T1 sequence (P08581 with tags, fused parts or gaps): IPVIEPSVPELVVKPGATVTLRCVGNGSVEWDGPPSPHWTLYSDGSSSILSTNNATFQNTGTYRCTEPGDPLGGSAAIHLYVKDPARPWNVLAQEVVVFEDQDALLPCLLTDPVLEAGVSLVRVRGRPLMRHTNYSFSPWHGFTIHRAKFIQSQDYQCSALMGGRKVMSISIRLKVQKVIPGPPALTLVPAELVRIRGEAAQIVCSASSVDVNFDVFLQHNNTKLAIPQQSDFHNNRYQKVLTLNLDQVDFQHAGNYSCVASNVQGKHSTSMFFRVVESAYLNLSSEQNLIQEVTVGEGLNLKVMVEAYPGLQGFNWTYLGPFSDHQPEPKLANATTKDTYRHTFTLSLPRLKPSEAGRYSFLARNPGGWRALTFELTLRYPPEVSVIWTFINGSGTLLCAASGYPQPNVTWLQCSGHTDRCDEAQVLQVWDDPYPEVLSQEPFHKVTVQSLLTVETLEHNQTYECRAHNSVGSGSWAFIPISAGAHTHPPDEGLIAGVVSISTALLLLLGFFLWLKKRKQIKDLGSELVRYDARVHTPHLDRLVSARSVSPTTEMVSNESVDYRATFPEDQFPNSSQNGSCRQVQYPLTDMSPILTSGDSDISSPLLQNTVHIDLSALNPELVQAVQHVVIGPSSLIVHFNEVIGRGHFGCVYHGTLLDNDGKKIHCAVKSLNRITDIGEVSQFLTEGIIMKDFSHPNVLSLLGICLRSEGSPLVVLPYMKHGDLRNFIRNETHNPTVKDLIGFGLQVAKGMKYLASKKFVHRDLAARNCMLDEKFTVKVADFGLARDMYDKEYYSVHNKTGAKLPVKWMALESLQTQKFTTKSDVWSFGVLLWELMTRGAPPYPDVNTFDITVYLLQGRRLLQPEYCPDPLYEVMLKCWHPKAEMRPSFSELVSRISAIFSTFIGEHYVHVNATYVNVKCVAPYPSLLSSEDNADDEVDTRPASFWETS

As to `CN(C)Cc1cccc(NC(=O)c2cc3c(Oc4ccc(NC(=O)C5(C(=O)Nc6ccc(F)cc6)CC5)cc4)ccnc3[nH]2)c1` [Example 14, N^1-[4-({2-[({3-[(Dimethylamino)methyl]phenyl}amino)carbonyl]-1H-pyrrolo[2,3-b]pyridin-4-yl}oxy)phenyl]-N^1-(4-fluorophenyl)-1,1-cyclopropane dicarboxamide], the pIC50 in test [1] was 5.50 to 6.00. In test [2], the IC50 was below 0.01 µM.
In turn, `O=C(Nc1ccccc1)C1(C(=O)Nc2ccc(Nc3ccnc4[nH]ccc34)cc2)CC1` [Example 16, N^1-Phenyl-N^1-[4-(1H-pyrrolo[2,3-b]pyridin-4-ylamino)phenyl]-1,1-cyclopropanedicarboxamide] showed a pIC50 in test [1] of 4.50 to 5.50. Besides, in test [2], the IC50 is 0.1 to 1 µM.
Regarding `O=C(NCCN1CCOCC1)c1cc2c(Oc3ccc(NC(=O)C4(C(=O)Nc5ccc(F)cc5)CC4)cc3)ccnc2[nH]1` [Example 4, N^1-(4-Fluorophenyl)-N^1-(4-{[2-({[2-(4-morpholinyl)ethyl]amino}carbonyl)-1H-pyrrolo[2,3-b]pyridin-4-yl]oxy}phenyl)-1,1-cyclopropane dicarboxamide], in test [2], the IC50 was below 0.01 µM.
